This passage reports IC50 results from PubChem BioAssay AID651581 (Sanford-Burnham Center for Chemical Genomics, 2012).

For assay [1], the target named is Hypoxia-inducible factor 1-alpha (Homo sapiens) (UniProt Q16665). The assay is described as follows: potency against HIF reporters across cell lines – luminescence, panel, selectivity assay for HIF-2a inhibitor project, dose response (AID 651581). The settings on record: human cell HIF reporter, HIF-1a.
Assay [2] addresses Endothelial PAS domain-containing protein 1 (Homo sapiens) (UniProt Q99814). Described as above. Conditions: human cell HIF reporter.

The source made the active and inactive calls. The rule behind the calls is not given here.

The IC50 is the concentration needed to halve the response being measured.

Sequence of Hypoxia-inducible factor 1-alpha (Homo sapiens) (Q16665 whole entry, looked up, the tested form may be a part): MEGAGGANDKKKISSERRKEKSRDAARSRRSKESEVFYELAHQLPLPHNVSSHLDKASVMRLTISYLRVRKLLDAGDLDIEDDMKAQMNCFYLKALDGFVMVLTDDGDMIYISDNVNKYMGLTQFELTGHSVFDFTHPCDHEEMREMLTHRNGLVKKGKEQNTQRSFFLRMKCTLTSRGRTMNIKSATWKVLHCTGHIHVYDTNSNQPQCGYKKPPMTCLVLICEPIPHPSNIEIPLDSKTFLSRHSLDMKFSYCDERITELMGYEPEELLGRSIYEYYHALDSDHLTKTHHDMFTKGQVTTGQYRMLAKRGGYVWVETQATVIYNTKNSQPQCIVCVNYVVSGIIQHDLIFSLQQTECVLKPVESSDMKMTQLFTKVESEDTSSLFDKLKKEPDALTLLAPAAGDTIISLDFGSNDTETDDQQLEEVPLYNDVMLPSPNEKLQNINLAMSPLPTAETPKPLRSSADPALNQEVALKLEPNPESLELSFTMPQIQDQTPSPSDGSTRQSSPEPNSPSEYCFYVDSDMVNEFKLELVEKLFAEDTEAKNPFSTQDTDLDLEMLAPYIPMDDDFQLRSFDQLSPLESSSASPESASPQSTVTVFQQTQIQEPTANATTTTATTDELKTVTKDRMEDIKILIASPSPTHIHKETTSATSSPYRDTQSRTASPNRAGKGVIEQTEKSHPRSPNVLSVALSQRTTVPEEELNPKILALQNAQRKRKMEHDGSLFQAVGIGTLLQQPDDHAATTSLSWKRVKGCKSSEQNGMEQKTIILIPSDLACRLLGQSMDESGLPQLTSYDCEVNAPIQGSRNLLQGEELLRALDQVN

Take `CCOC(=O)Cc1csc(NC(=S)NC(=O)c2ccccc2C)n1`: the IC50 entry in assay [1] (mean of runs) is “inactive”; in assay [2] (HIF-2a, mean of runs) it was “inactive”. In addition, the IC50 in assay [1] (run 1) was 22.8 µM; in assay [1] (run 2) it was 37.2 µM; in assay [2] (HIF-2a PANC, run 1), over 99 µM; in assay [2] (HIF-2a PANC, run 2) it was 49 µM; in assay [2] (HIF-2a, run 1), 15 µM; in assay [2] (HIF-2a, run 2), 14.5 µM.

For `O=C(Nc1cc(S(=O)(=O)N2CCOCC2)ccc1Cl)c1cc([N+](=O)[O-])ccc1Cl`, the IC50 entry in assay [1] (mean of runs) was “inactive”; in assay [2] (HIF-2a, mean of runs), “inactive”. Also, the IC50 was 23.9 µM in assay [1] (run 1); 17.6 µM in assay [1] (run 2); over 99 µM in assay [2] (HIF-2a PANC, run 1); 80.5 µM in assay [2] (HIF-2a PANC, run 2); 15.1 µM in assay [2] (HIF-2a, run 1); 13.9 µM in assay [2] (HIF-2a, run 2).

Take `CCNC(=O)NC(=O)COC(=O)CCCSc1nc2ccccc2s1`: the IC50 in assay [1] (mean of runs) was 17.9 µM; in assay [1] (run 1), 28.3 µM; in assay [1] (run 2), 7.51 µM; in assay [2] (HIF-2a PANC, mean of runs), 12.1 µM; in assay [2] (HIF-2a PANC, run 1), 10.8 µM; in assay [2] (HIF-2a PANC, run 2), 13.4 µM. The IC50 was 5.05 µM in assay [2] (HIF-2a, mean of runs); 5.08 µM in assay [2] (HIF-2a, run 1); 5.02 µM in assay [2] (HIF-2a, run 2).

In the case of `S=C(c1ccc(-c2ccccc2)cc1)N1CCOCC1`, in assay [1] (mean of runs), the IC50 entry was “inactive”. Besides, the concentration for half-maximal inhibition (IC50) is 1.48 µM in assay [1] (run 1); 2.53 µM in assay [1] (run 2); 2.79 µM in assay [2] (HIF-2a PANC, mean of runs); 2.51 µM in assay [2] (HIF-2a PANC, run 1); 3.07 µM in assay [2] (HIF-2a PANC, run 2); 1.06 µM in assay [2] (HIF-2a, mean of runs). The IC50 came to 0.98 µM in assay [2] (HIF-2a, run 1) and 1.15 µM in assay [2] (HIF-2a, run 2).

Consider `CCOc1cc(/C=N/Nc2cccc(C(=O)O)c2)ccc1OC(=O)c1ccccc1`, for which the IC50 was over 99 µM in assay [1] (run 1); over 99 µM in assay [1] (run 2); over 99 µM in assay [2] (HIF-2a PANC, run 1); 30.1 µM in assay [2] (HIF-2a PANC, run 2); 4.22 µM in assay [2] (HIF-2a, mean of runs); 4.44 µM in assay [2] (HIF-2a, run 1). This molecule returned an IC50 in assay [2] (HIF-2a, run 2) of 4 µM.

Take `COc1ccc(OCc2cccc(C(=O)O)c2)cc1`: the IC50 in assay [1] (mean of runs) is 26.3 µM; in assay [1] (run 1) it was 19 µM; in assay [1] (run 2) it was 33.7 µM; in assay [2] (HIF-2a PANC, run 1) it was over 99 µM; in assay [2] (HIF-2a PANC, run 2), under 30 µM; in assay [2] (HIF-2a, mean of runs) it was 0.781 µM. Besides, the IC50 in assay [2] (HIF-2a, run 1) is 0.76 µM; in assay [2] (HIF-2a, run 2), 0.802 µM.

On to `CCOC(=O)Cc1csc(NC(=S)NC(=O)c2ccc([N+](=O)[O-])cc2)n1`, for which the IC50 in assay [1] (mean of runs) is 51 µM; in assay [1] (run 1), 55.3 µM; in assay [1] (run 2), 46.8 µM; in assay [2] (HIF-2a PANC, run 1), 35.8 µM; in assay [2] (HIF-2a PANC, run 2), 34.5 µM; in assay [2] (HIF-2a, mean of runs), 5.93 µM. Moreover, the IC50 in assay [2] (HIF-2a, run 1) was 5.83 µM; in assay [2] (HIF-2a, run 2), 6.03 µM. The IC50 result in assay [2] (HIF-2a PANC, mean of runs) is “inactive”.

In the case of `Cc1nc2cc(-c3cccc(F)c3)nn2c(C)c1CCC(=O)N1CCC2(CC1)OCCO2`, the IC50 in assay [1] (mean of runs) is 68.8 µM; in assay [1] (run 1) it was 81.5 µM; in assay [1] (run 2), 56.2 µM; in assay [2] (HIF-2a PANC, mean of runs), 2.03 µM; in assay [2] (HIF-2a PANC, run 1), 2.17 µM; in assay [2] (HIF-2a PANC, run 2), 1.9 µM. The IC50 is 1.27 µM in assay [2] (HIF-2a, mean of runs); 1.27 µM in assay [2] (HIF-2a, run 1); 1.28 µM in assay [2] (HIF-2a, run 2).

On to `Cc1ccc(C)c(S(=O)(=O)ON2C(=O)c3ccccc3C2=O)c1`, for which the IC50 in assay [1] (run 1) was over 99 µM; in assay [1] (run 2), over 99 µM; in assay [2] (HIF-2a PANC, mean of runs), > 99 µM (inactive); in assay [2] (HIF-2a PANC, run 1), over 99 µM; in assay [2] (HIF-2a PANC, run 2) it was over 99 µM; in assay [2] (HIF-2a, mean of runs), 8.46 µM. Besides, the IC50 in assay [2] (HIF-2a, run 1) amounted to 8.53 µM; in assay [2] (HIF-2a, run 2) it was 8.39 µM.

In the case of `COc1ccc(-c2cnc3c(NC=O)cc(-c4cccc(NS(C)(=O)=O)c4)cn23)cc1OC`, the IC50 entry in assay [1] (mean of runs) was “inactive”; in assay [2] (HIF-2a, mean of runs), “inactive”. Also, the 50% inhibitory concentration (IC50) in assay [1] (run 1) was 30.3 µM; in assay [1] (run 2) it was 24.8 µM; in assay [2] (HIF-2a PANC, mean of runs) it was 4.5 µM; in assay [2] (HIF-2a PANC, run 1), 3.94 µM; in assay [2] (HIF-2a PANC, run 2), 5.05 µM; in assay [2] (HIF-2a, run 1) it was 13 µM. The molecule further registered an IC50 in assay [2] (HIF-2a, run 2) of 10.8 µM.

For the molecule `CC(=O)N/N=C\c1cccc(OC/C=C/c2ccccc2)c1`, the half-maximal inhibitory concentration (IC50) in assay [1] (run 1) is over 99 µM; in assay [1] (run 2), over 99 µM; in assay [2] (HIF-2a PANC, mean of runs), > 99 µM (inactive); in assay [2] (HIF-2a PANC, run 1) it was over 99 µM; in assay [2] (HIF-2a PANC, run 2), over 99 µM; in assay [2] (HIF-2a, mean of runs) it was under 10 µM. Besides, the IC50 in assay [2] (HIF-2a, run 1) was under 10 µM; in assay [2] (HIF-2a, run 2), under 30 µM.

As for `Cc1nnnn1/C(=C\c1ccccc1)C(=O)OCC(=O)Nc1ccc(Cl)cc1F`, the IC50 result in assay [1] (mean of runs) is “inactive”. Moreover, the 50% inhibitory concentration (IC50) was 16 µM in assay [1] (run 1); 21.2 µM in assay [1] (run 2); 19.9 µM in assay [2] (HIF-2a PANC, mean of runs); 19.3 µM in assay [2] (HIF-2a PANC, run 1); 20.6 µM in assay [2] (HIF-2a PANC, run 2); 8.16 µM in assay [2] (HIF-2a, mean of runs). The IC50 in assay [2] (HIF-2a, run 1) was found to be 8.44 µM; in assay [2] (HIF-2a, run 2), 7.88 µM.
